According to patent US20250059198A1, “BRM DEGRADING COMPOUNDS AND ASSOCIATED METHODS OF USE” (Arvinas Operations, Inc., priority 2021, published 2025):

Target: T1, BRM (Homo sapiens, UniProt P51531)
T1 construct: Western Blot Screen of BRM Degradation in SW1573 Cells; endogenous in cells; host or cells: SW1573 cells
Assay: BRM degradation (Dmax and DC50) in SW1573 cells, Western blot screen / In-Cell Western screen
Assay type: cell-based
Conditions: overnight (18-20 hours) treatment; for Dmax: read-out: Dmax (%)** (% degraded)
Procedure, shortened: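 Dmax and DC50 were derived from BRM levels normalised to an alpha-tubulin control, measured by chemiluminescent Western blotting of lysates or by PFA-fixed In-Cell Western on LI-COR Odyssey. SW1573 cells received compound overnight (18–20 h, 0.1% DMSO final).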

T1 sequence (P51531 whole entry): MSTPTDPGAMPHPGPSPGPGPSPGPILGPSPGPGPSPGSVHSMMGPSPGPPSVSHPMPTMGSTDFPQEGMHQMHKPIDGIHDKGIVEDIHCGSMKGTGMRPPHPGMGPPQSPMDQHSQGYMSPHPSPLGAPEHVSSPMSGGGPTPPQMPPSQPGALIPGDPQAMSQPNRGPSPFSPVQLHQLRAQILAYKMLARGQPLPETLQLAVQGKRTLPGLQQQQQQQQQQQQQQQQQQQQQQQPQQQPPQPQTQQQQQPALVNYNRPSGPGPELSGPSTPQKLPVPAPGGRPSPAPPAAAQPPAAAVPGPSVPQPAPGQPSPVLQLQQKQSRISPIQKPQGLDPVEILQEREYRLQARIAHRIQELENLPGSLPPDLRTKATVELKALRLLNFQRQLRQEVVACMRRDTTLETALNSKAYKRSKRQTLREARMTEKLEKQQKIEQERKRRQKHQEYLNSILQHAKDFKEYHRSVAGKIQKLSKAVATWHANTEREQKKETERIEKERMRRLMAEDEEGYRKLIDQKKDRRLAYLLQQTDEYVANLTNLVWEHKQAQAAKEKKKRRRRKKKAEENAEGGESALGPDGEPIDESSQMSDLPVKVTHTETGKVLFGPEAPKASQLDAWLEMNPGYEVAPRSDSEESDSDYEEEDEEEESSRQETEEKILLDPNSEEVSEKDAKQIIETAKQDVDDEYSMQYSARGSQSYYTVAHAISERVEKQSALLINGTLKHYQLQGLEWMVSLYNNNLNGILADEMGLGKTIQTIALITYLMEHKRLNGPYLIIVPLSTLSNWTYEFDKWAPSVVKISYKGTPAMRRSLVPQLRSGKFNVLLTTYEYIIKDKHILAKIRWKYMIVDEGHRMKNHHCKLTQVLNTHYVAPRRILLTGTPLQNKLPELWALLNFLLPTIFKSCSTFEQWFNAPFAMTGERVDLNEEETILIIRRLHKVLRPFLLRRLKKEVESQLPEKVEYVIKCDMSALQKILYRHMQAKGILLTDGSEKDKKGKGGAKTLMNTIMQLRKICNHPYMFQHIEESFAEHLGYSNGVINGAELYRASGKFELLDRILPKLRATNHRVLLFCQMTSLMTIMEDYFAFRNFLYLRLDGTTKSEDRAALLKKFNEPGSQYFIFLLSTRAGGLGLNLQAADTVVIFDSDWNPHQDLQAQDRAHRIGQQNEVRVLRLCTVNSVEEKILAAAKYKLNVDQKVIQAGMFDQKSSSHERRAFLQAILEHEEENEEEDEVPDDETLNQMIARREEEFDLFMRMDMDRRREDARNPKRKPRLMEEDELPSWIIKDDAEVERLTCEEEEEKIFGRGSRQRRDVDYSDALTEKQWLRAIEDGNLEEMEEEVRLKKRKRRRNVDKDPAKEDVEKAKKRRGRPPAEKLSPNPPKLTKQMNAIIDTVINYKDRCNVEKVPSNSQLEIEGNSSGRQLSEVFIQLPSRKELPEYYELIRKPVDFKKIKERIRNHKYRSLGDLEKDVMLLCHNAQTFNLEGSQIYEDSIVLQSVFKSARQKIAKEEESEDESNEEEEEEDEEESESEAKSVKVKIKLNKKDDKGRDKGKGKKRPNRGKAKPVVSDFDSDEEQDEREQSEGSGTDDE

Compound | DC50 [nM] | Dmax [%]
Cc1ncsc1-c1ccc([C@H](C)NC(=O)[C@@H]2C[C@@H](O)CN2C(=O)[C@@H](c2cc(N3CCC(CN4CCC5(CC4)CC(N4CCC(F)(F)C(CN6C7CCC6CN(c6cc(-c8ccccc8O)nnc6N)C7)C4)C5)CC3)no2)C(C)C)cc1 (stereo partly drawn) [Compound 120, (2S,4R)-1-[(2R)-2-{3-[4-({2-[3-({3-[3-amino-6-(2-hydroxyphenyl)pyridazin-4-yl]-3,8-diazabicyclo[3.2.1]octan-8-yl}methyl)-4,4-difluoropiperidin-1-yl]-7-azaspiro[3.5]nonan-7-yl}methyl)piperidin-1-yl]-1,2-oxazol-5-yl}-3-methylbutanoyl]-4-hydroxy-N-[(1S)-1-[4-(4-methyl-1,3-thiazol-5-yl)phenyl]ethyl]pyrrolidine-2-carboxamide] | < 2.5 | > 75
Cc1ncsc1-c1ccc([C@H](C)NC(=O)[C@@H]2C[C@@H](O)CN2C(=O)[C@@H](c2cc(N3CCC(CN4CCC5(CC4)CC(N4CCO[C@@H](C#CC(C)n6cc(-c7cc(-c8ccccc8O)nnc7N)cn6)C4)C5)CC3)no2)C(C)C)cc1 (stereo partly drawn) [Compound 121, (2S,4R)-1-[(2R)-2-{3-[4-({2-[(2S)-2-(3-{4-[3-amino-6-(2-hydroxyphenyl)pyridazin-4-yl]-1H-pyrazol-1-yl}but-1-yn-1-yl)morpholin-4-yl]-7-azaspiro[3.5]nonan-7-yl}methyl)piperidin-1-yl]-1,2-oxazol-5-yl}-3-methylbutanoyl]-4-hydroxy-N-[(1S)-1-[4-(4-methyl-1,3-thiazol-5-yl)phenyl]ethyl]pyrrolidine-2-carboxamide] | < 2.5 | > 75
Cc1ncsc1-c1ccc([C@H](C)NC(=O)[C@@H]2C[C@@H](O)CN2C(=O)[C@@H](c2cc(N3CCC(CN4CCC5(CC4)CC(N4CCN(CC6(O)CCN(c7cc(-c8ccccc8O)nnc7N)CC6)CC4)C5)CC3)no2)C(C)C)cc1 [Compound 122, (2S,4R)-1-[(2R)-2-{3-[4-({2-[4-({1-[3-amino-6-(2-hydroxyphenyl)pyridazin-4-yl]-4-hydroxypiperidin-4-yl}methyl)piperazin-1-yl]-7-azaspiro[3.5]nonan-7-yl}methyl)piperidin-1-yl]-1,2-oxazol-5-yl}-3-methylbutanoyl]-4-hydroxy-N-[(1S)-1-[4-(4-methyl-1,3-thiazol-5-yl)phenyl]ethyl]pyrrolidine-2-carboxamide] | < 2.5 | > 75
Cc1ncsc1-c1ccc([C@H](C)NC(=O)[C@@H]2C[C@@H](O)CN2C(=O)[C@@H](c2cc(N3CCN(C(=O)N4CCC(O[C@H]5C[C@H](Oc6cc(N7C8CCC7CN(c7cc(-c9ccccc9O)nnc7N)C8)ccn6)C5)CC4)CC3)no2)C(C)C)cc1 [Compound 123, (2S,4R)-4-hydroxy-N-[(1S)-1-[4-(4-methyl-1,3-thiazol-5-yl)phenyl]ethyl]-1-[(2S)-3-methyl-2-[3-(4-{4-[(1r,3r)-3-[(4-{3-[3-amino-6-(2-hydroxyphenyl)pyridazin-4-yl]-3,8-diazabicyclo[3.2.1]octan-8-yl}pyridin-2-yl)oxy]cyclobutoxy]piperidine-1-carbonyl}piperazin-1-yl)-1,2-oxazol-5-yl]butanoyl]pyrrolidine-2-carboxamide] | < 2.5 | > 75
Cc1ncsc1-c1ccc([C@H](C)NC(=O)[C@@H]2C[C@@H](O)CN2C(=O)[C@H](c2cc(N3CCN(C(=O)N4CCC(O[C@H]5C[C@H](Oc6cc(N7C8CCC7CN(c7cc(-c9ccccc9O)nnc7N)C8)ccn6)C5)CC4)CC3)no2)C(C)C)cc1 [Compound 124, (2S,4R)-4-hydroxy-N-[(1S)-1-[4-(4-methyl-1,3-thiazol-5-yl)phenyl]ethyl]-1-[(2R)-3-methyl-2-[3-(4-{4-[(1r,3r)-3-[(4-{3-[3-amino-6-(2-hydroxyphenyl)pyridazin-4-yl]-3,8-diazabicyclo[3.2.1]octan-8-yl}pyridin-2-yl)oxy]cyclobutoxy]piperidine-1-carbonyl}piperazin-1-yl)-1,2-oxazol-5-yl]butanoyl]pyrrolidine-2-carboxamide] | ≥ 30 | 
Cc1ncsc1-c1ccc([C@H](C)NC(=O)[C@@H]2C[C@@H](O)CN2C(=O)[C@@H](c2cc(N3CCC(CN4CCC5(CC4)CC(N4CCOC6(CN(CC7C8CCC7CN(c7cc(-c9ccccc9O)nnc7N)C8)C6)C4)C5)CC3)no2)C(C)C)cc1 (stereo partly drawn) [Compound 125, (2S,4R)-1-[(2R)-2-{3-[4-({2-[2-({3-[3-amino-6-(2-hydroxyphenyl)pyridazin-4-yl]-3-azabicyclo[3.2.1]octan-8-yl}methyl)-5-oxa-2,8-diazaspiro[3.5]nonan-8-yl]-7-azaspiro[3.5]nonan-7-yl}methyl)piperidin-1-yl]-1,2-oxazol-5-yl}-3-methylbutanoyl]-4-hydroxy-N-[(1S)-1-[4-(4-methyl-1,3-thiazol-5-yl)phenyl]ethyl]pyrrolidine-2-carboxamide] | < 2.5 | > 75
Cc1ncsc1-c1ccc([C@H](C)NC(=O)[C@@H]2C[C@@H](O)CN2C(=O)[C@@H](c2cc(N3CCC(CN4CCC5(CC4)CC(N4CCOC6(CC(CN7C8CCC7CN(c7cc(-c9ccccc9O)nnc7N)C8)C6)C4)C5)CC3)no2)C(C)C)cc1 [Compound 126, (2S,4R)-1-[(2R)-2-{3-[4-({2-[2-({3-[3-amino-6-(2-hydroxyphenyl)pyridazin-4-yl]-3,8-diazabicyclo[3.2.1]octan-8-yl}methyl)-5-oxa-8-azaspiro[3.5]nonan-8-yl]-7-azaspiro[3.5]nonan-7-yl}methyl)piperidin-1-yl]-1,2-oxazol-5-yl}-3-methylbutanoyl]-4-hydroxy-N-[(1S)-1-[4-(4-methyl-1,3-thiazol-5-yl)phenyl]ethyl]pyrrolidine-2-carboxamide] | 2.5 to 10 | > 75
Cc1ncsc1-c1ccc([C@H](C)NC(=O)[C@@H]2C[C@@H](O)CN2C(=O)[C@@H](c2cc(OCCOC(=O)N3CCC(O[C@H]4C[C@H](Oc5cc(N6C7CCC6CN(c6cc(-c8ccccc8O)nnc6N)C7)ccn5)C4)CC3)no2)C(C)C)cc1 [Compound 127, 2-({5-[(2R)-1-[(2S,4R)-4-hydroxy-2-{[(1S)-1-[4-(4-methyl-1,3-thiazol-5-yl)phenyl]ethyl]carbamoyl}pyrrolidin-1-yl]-3-methyl-1-oxobutan-2-yl]-1,2-oxazol-3-yl}oxy)ethyl 4-[(1r,3r)-3-[(4-{3-[3-amino-6-(2-hydroxyphenyl)pyridazin-4-yl]-3,8-diazabicyclo[3.2.1]octan-8-yl}pyridin-2-yl)oxy]cyclobutoxy]piperidine-1-carboxylate] | ≥ 30 | 
Cc1ncsc1-c1ccc([C@H](C)NC(=O)[C@@H]2C[C@@H](O)CN2C(=O)[C@@H](c2cc(N3CCC(OC(=O)N4CCC(Oc5cc(N6C7CCC6CN(c6cc(-c8ccccc8O)nnc6N)C7)ccn5)CC4)CC3)no2)C(C)C)cc1 [Compound 128, 1-(5-((R)-1-((2S,4R)-4-hydroxy-2-(((S)-1-(4-(4-methylthiazol-5-yl)phenyl)ethyl)carbamoyl)pyrrolidin-1-yl)-3-methyl-1-oxobutan-2-yl)isoxazol-3-yl)piperidin-4-yl 4-((4-(3-(3-amino-6-(2-hydroxyphenyl)pyridazin-4-yl)-3,8-diazabicyclo[3.2.1]octan-8-yl)pyridin-2-yl)oxy)piperidine-1-carboxylate] | < 2.5 | > 75
Cc1ncsc1-c1ccc([C@H](C)NC(=O)[C@@H]2C[C@@H](O)CN2C(=O)[C@@H](c2cc(N3CCN(C(=O)N4CC(Oc5cc(N6C7CCC6CN(c6cc(-c8ccccc8O)nnc6N)C7)ccn5)C4)CC3)no2)C(C)C)cc1 [Compound 129, (2S,4R)-1-[(2R)-2-[3-(4-{3-[(4-{3-[3-amino-6-(2-hydroxyphenyl)pyridazin-4-yl]-3,8-diazabicyclo[3.2.1]octan-8-yl}pyridin-2-yl)oxy]azetidine-1-carbonyl}piperazin-1-yl)-1,2-oxazol-5-yl]-3-methylbutanoyl]-4-hydroxy-N-[(1S)-1-[4-(4-methyl-1,3-thiazol-5-yl)phenyl]ethyl]pyrrolidine-2-carboxamide] | 2.5 to 10 | > 75
Cc1ncsc1-c1ccc([C@H](C)NC(=O)[C@@H]2C[C@@H](O)CN2C(=O)[C@@H](c2cc(N3CCC(CN4CCC(O[C@H]5C[C@H](N6CCC(Cc7cn(-c8cc(-c9ccccc9O)nnc8N)cn7)CC6)C5)CC4)CC3)no2)C(C)C)cc1 [Compound 130, (2S,4R)-4-hydroxy-N-[(1S)-1-[4-(4-methyl-1,3-thiazol-5-yl)phenyl]ethyl]-1-[(2R)-3-methyl-2-{3-[4-({4-[(1r,3r)-3-[4-({1-[3-amino-6-(2-hydroxyphenyl)pyridazin-4-yl]-1H-imidazol-4-yl}methyl)piperidin-1-yl]cyclobutoxy]piperidin-1-yl}methyl)piperidin-1-yl]-1,2-oxazol-5-yl}butanoyl]pyrrolidine-2-carboxamide] | 10 to 30 | > 75
Cc1ncsc1-c1ccc([C@H](C)NC(=O)[C@@H]2C[C@@H](O)CN2C(=O)[C@H](c2cc(N3CCC(OC(=O)N4CCC(Oc5cc(N6C7CCC6CN(c6cc(-c8ccccc8O)nnc6N)C7)ccn5)CC4)CC3)no2)C(C)C)cc1 [Compound 131, 1-(5-((S)-1-((2S,4R)-4-hydroxy-2-(((S)-1-(4-(4-methylthiazol-5-yl)phenyl)ethyl)carbamoyl)pyrrolidin-1-yl)-3-methyl-1-oxobutan-2-yl)isoxazol-3-yl)piperidin-4-yl 4-((4-(3-(3-amino-6-(2-hydroxyphenyl)pyridazin-4-yl)-3,8-diazabicyclo[3.2.1]octan-8-yl)pyridin-2-yl)oxy)piperidine-1-carboxylate] | ≥ 30 | 
